pIC50: −log10 of the molar value.

Data on 21 compounds can be found in patent US8815840B2, “Carbazole and carboline kinase inhibitors” (Bristol-Myers Squibb Company, priority 2008, dated 2014).

JAK2, sequence (O60674 whole entry): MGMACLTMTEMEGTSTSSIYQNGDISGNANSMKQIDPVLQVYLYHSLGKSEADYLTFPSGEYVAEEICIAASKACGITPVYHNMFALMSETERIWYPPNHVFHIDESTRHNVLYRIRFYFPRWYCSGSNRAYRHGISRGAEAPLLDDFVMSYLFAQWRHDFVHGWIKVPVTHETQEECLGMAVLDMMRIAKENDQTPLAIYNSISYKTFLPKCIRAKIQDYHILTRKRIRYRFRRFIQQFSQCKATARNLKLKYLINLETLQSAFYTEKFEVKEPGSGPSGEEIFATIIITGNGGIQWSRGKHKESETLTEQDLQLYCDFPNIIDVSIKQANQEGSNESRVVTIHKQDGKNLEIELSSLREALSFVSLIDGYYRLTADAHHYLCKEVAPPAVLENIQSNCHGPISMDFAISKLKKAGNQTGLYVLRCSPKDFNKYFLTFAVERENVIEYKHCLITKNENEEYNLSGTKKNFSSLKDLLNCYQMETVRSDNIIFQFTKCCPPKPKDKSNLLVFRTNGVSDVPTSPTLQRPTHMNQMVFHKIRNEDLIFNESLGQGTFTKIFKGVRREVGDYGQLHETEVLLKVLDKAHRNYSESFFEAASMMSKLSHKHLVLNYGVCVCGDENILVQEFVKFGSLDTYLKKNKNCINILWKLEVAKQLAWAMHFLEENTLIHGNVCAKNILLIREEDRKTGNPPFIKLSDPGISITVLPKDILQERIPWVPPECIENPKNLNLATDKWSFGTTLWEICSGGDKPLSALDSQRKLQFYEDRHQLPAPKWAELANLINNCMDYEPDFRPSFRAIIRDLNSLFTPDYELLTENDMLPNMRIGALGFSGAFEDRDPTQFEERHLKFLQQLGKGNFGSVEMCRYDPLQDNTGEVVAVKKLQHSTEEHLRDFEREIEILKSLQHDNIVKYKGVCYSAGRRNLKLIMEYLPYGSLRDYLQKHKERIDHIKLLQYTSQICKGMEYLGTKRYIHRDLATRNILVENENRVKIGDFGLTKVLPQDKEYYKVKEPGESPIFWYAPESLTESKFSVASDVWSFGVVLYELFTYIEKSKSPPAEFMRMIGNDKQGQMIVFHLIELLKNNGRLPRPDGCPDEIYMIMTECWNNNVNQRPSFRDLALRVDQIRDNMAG

The target of this experiment is JAK2 (Homo sapiens (Human), UniProt O60674). Briefly: JAK2 Tyrosine Kinase Assay. In kind it is biochemical. To be noted: ATP 30 μM; JAK2 1 nM; 60 min at room temperature. How it is done:
JAK2 Tyrosine Kinase Assay
The assays were performed in V-bottom 384-well plates. […] The reaction was initiated by the combination of JAK2 with substrates and test compounds. The reaction was incubated at room temperature for 60 min. and terminated by adding 45 μl of 35 mM EDTA to each sample. The reaction mixture was analyzed on the Caliper LABCHIP® 3000 by electrophoretic separation of the fluorescent substrate and phosphorylated product. […] Compounds were dissolved at 10 mM in dimethylsulfoxide (DMSO) and evaluated at eleven concentrations, each in duplicate. IC50 values were derived by non-linear regression analysis
As for `Cn1ccc2cc(-c3cc(C(N)=O)c4[nH]c5cc(C(=O)N6CCOCC6)ccc5c4n3)ccc21` [Example 448, 2-(1-methyl-1H-indol-5-yl)-7-(morpholine-4-carbonyl)-5H-pyrido[3,2-b]indole-4-carboxamide], the pIC50 was 9.00.

On to `Cn1ncc2ccc(-c3cc(C(N)=O)c4[nH]c5cc(C(=O)N6CCOCC6)ccc5c4n3)cc21` [Example 454, 2-(1-methyl-1H-indazol-6-yl)-7-(morpholine-4-carbonyl)-5H-pyrido[3,2-b]indole-4-carboxamide], for which the pIC50 was 8.15.

Regarding `NC(=O)c1cc(-c2ccc3scnc3c2)nc2c1[nH]c1cc(C(=O)N3CCOCC3)ccc12` [Example 456, 2-(benzo[d]thiazol-5-yl)-7-(morpholine-4-carbonyl)-5H-pyrido[3,2-b]indole-4-carboxamide], the pIC50 was 9.00.

Regarding `Cc1noc(C)c1-c1cc(C(N)=O)c2[nH]c3cc(C(=O)N4CCOCC4)ccc3c2n1` [Example 461, 2-(3,5-dimethylisoxazol-4-yl)-7-(morpholine-4-carbonyl)-5H-pyrido[3,2-b]indole-4-carboxamide], the pIC50 is 6.84.

Consider `NC(=O)c1cc(-c2cnoc2)nc2c1[nH]c1cc(C(=O)N3CCOCC3)ccc12` [Example 462, 2-(isoxazol-4-yl)-7-(morpholine-4-carbonyl)-5H-pyrido[3,2-b]indole-4-carboxamide], for which the pIC50 was 6.95.

As to `Cn1nc(C(F)(F)F)cc1-c1cc(C(N)=O)c2[nH]c3cc(C(=O)N4CCOCC4)ccc3c2n1` [Example 464, 2-(1-methyl-3-(trifluoromethyl)-1H-pyrazol-5-yl)-7-(morpholine-4-carbonyl)-5H-pyrido[3,2-b]indole-4-carboxamide], the pIC50 was 6.50.

With `CN1CCN(c2ccc(-c3cc(C(N)=O)c4[nH]c5cc(C(=O)N6CCOCC6)ccc5c4n3)cc2)CC1` [Example 468, 2-(4-(4-methylpiperazin-1-yl)phenyl)-7-(morpholine-4-carbonyl)-5H-pyrido[3,2-b]indole-4-carboxamide], the pIC50 is 8.22.

For `NC(=O)c1nc(-c2ccccc2)cc2c1[nH]c1cc(C(=O)N3CCOCC3)ccc12` [Example 469, 7-(Morpholine-4-carbonyl)-3-phenyl-9H-pyrido[3,4-b]indole-1-carboxamide], the pIC50 is 7.96.

With `Cc1cccc(-c2cc(C(N)=O)c3[nH]c4cc(N5CCN(Cc6ccccc6)CC5)ccc4c3c2)c1` [Example 479, 7-(4-Benzylpiperazin-1-yl)-3-m-tolyl-9H-carbazole-1-carboxamide], the pIC50 was 6.91.

Regarding `NC(=O)c1cc(-c2ccc(CN3CCOCC3)c(Cl)c2)cc2c1[nH]c1cc(-c3cccnc3)ccc12` [Example 481, 3-(3-Chloro-4-(morpholinomethyl)phenyl)-7-(pyridin-3-yl)-9H-carbazole-1-carboxamide], the pIC50 was 6.88.

Turning to `NC(=O)c1cc(-c2ccc(CN3CCOCC3)c(Cl)c2)cc2c1[nH]c1cc(-c3ccc(N4CCOCC4)nc3)ccc12` [Example 482, 3-(3-Chloro-4-(morpholinomethyl)phenyl)-7-(6-morpholinopyridin-3-yl)-9H-carbazole-1-carboxamide], the pIC50 was 6.04.

For the compound `Cc1cc(-c2cc(C(N)=O)c3[nH]c4cc(C5CCN(C(=O)OC(C)(C)C)CC5)ccc4c3c2)ccc1CN1CCOCC1` [Example 486, tert-Butyl 4-(8-carbamoyl-6-(3-methyl-4-(morpholinomethyl)phenyl)-9H-carbazol-2-yl)piperidine-1-carboxylate], the pIC50 was 6.09.

In the case of `NC(=O)c1cc(-c2ccc(C3CC3)nc2)nc2c1[nH]c1cc(N3CCOCC3)ccc12` [Example 499, 2-(6-cyclopropylpyridin-3-yl)-7-morpholino-5H-pyrido[3,2-b]indole-4-carboxamide], the pIC50 was 9.00.

Regarding `NC(=O)c1cc(-c2ccc(CO)nc2)nc2c1[nH]c1cc(N3CCOCC3)ccc12` [Example 500, 2-(6-(hydroxymethyl)pyridin-3-yl)-7-morpholino-5H-pyrido[3,2-b]indole-4-carboxamide], the pIC50 is 8.22.

For `Cc1cc(-c2cc(C(N)=O)c3[nH]c4cc(N5CCOCC5)ccc4c3n2)ccc1Cl` [Example 501, 2-(4-chloro-3-methylphenyl)-7-morpholino-5H-pyrido[3,2-b]indole-4-carboxamide], the pIC50 is 8.15.

`CN(C)c1ccc(-c2cc(C(N)=O)c3[nH]c4cc(N5CCOCC5)ccc4c3n2)cn1` [Example 503, 2-(6-(dimethylamino)pyridin-3-yl)-7-morpholino-5H-pyrido[3,2-b]indole-4-carboxamide]: the negative logarithm of the IC50 (pIC50) was 9.00.

Turning to `NC(=O)c1cc(-c2ccc(N3CCOCC3)nc2)nc2c1[nH]c1cc(N3CCOCC3)ccc12` [Example 504, 7-morpholino-2-(6-morpholinopyridin-3-yl)-5H-pyrido[3,2-b]indole-4-carboxamide], the pIC50 is 9.00.

Regarding `NC(=O)c1cc(-c2ccc(F)c(Cl)c2)cc2c1[nH]c1cc(C(=O)N3CCOCC3)ccc12` [Example 545, 3-(3-Chloro-4-fluorophenyl)-7-(morpholine-4-carbonyl)-9H-carbazole-1-carboxamide], the pIC50 is 6.05.

Consider `CN(C)C(=O)c1ccc(-c2cc(C(N)=O)c3[nH]c4cc(C(=O)N5CCOCC5)ccc4c3c2)cc1` [Example 558, 3-(4-(dimethylcarbamoyl)phenyl)-7-(4-morpholinylcarbonyl)-9H-carbazole-1-carboxamide], for which the pIC50 is 6.54.

`N#Cc1cc(-c2cc(C(N)=O)c3[nH]c4cc(C(=O)N5CCOCC5)ccc4c3c2)ccc1F` [Example 563, 3-(3-cyano-4-fluorophenyl)-7-(4-morpholinylcarbonyl)-9H-carbazole-1-carboxamide]: the pIC50 was 6.00.

With `NC(=O)c1cc(-c2cnc(N3CCOCC3)nc2)cc2c1[nH]c1cc(C(=O)N3CCOCC3)ccc12` [Example 579, 7-(4-morpholinylcarbonyl)-3-(2-(4-morpholinyl)-5-pyrimidinyl)-9H-carbazole-1-carboxamide], the pIC50 was 6.97.

As usually defined, the pIC50 is the negative decadic logarithm of the IC50, by convention in mol/L.
